Assay [1] has as its system acetylated α-tubulin and histone H3. Kind of assay: Cellular target engagement, immunoblot of acetylated α-tubulin and histone H3 in MM.1S. Format: cell-based, human. The conditions noted are these: MM.1S cells, 10 μM, 24 h; compared to 2 and A6. On the procedure: Moreover, the capability to reduce the enzymatic activity of HDACs was confirmed by a cellular target engagement assay. MM.1S cells were treated with the PROTACs and the level of acetylated HDAC substrate proteins was subsequently determined. Class I HDACs deacetylate histone H3, and thus hyperacetylation of histone H3 indicates class I HDAC inhibition. Conversely, hyperacetylation of α‐tubulin serves a marker of HDAC6 inhibition. Both hit compounds are capable of inhibiting class I and HDAC6 in a cellular environment, confirming effective target engagement in MM.1S cells (Figure 5). With regards to the HDAC6 inhibition, the trend of the enzyme inhibition data was thus confirmed. […]
Samples of the aqueous solutions were taken after 0, 24, 48, and 72 h at room temperature and the amounts of the parental compound and potential fragments were monitored by HPLC gradient A (see 3.1 General Information). […]
Afterwards, proteins were transferred with the Trans -Blot Turbo Transfer System (Catalog# 1704150, Bio-Rad) to Immobilon-FL PVDF membranes (Catalog# IPFL00005, Mill ipore Merck, Burlington, MA, USA) at 1.0 A for 30 min and treated with 5% milk-powder solution for 1 h at room temperature under slight agitation. […] The ChemiDoc XRS+ System (Catalog# 1708265 , Bio-Rad) was used for detection and Image Lab Software 6.1 (Bio-Rad) for quantification. […]
(In general: Immunoblotting shows a protein as a band on a membrane.)

The test system of assay [2] is HDAC1, 2, 4, and 6. Kind of assay: Immunoblot HDAC isoform degradation in MM.1S, all tested isoforms. In kind it is cell-based, human. The conditions noted are these: MM.1S cells, 10 μM, 24 h. On the procedure: Figure 6 Examination of HDAC isoform degradation. MM.1S cells were treated with the indicated compounds (10 μM) or vehicle (DMSO) for 24 h. HDAC1, 2, 4, and 6 levels were analyzed by immunoblotting. (A) Representative images from a total of n=3 biological replicates.
2.5. Aqueous Stability Assay
For stability testing in aqueous solution, a 10-fold concentrated DMSO solution of the respective compounds was diluted in DPBS to generate a 10 µM concentration (final DMSO content of 10%).
Samples of the aqueous solutions were taken after 0, 24, 48, and 72 h at room temperature and the amounts of the parental compound and potential fragments were monitored by HPLC gradient A (see 3.1 General Information). The peak area of the 0 h sample was used for normalization. All compounds were tested in duplicates and GraphPad Prim was used for evaluation and data visualization.
The cell lysis was performed as descripted in 3.2. Simple Western Immunoassay. Samples were denatured by Laemmli 2× Concentrate (Catalog# S3401-10VL, Sigma-Aldrich) for 5 min at 95 °C, and […]
Bio-Rad, Hercules, CA, USA). […]
6.1 (Bio-Rad) for quantification. […]
In vitro inhibitory activities against HDAC1, 2 , and 6 were measured using a previously published protocol.[3] In vitro inhibitory activities against HDAC4 were measured using a previously published protocol with slight modifications. […]

`O=C(CCCCCCNC(=O)c1ccc(NC(=O)CCCCCCCCCCCN(C(=O)CCl)C(C(=O)NCc2ccccc2)c2ccc(Cl)c(Cl)c2)cc1)NO` (centres unmarked) [Compound 1j]: the “histone H3 hyperacetylation” value in assay [1] was “more pronounced”. In assay [2], the “Dmax, all four tested isoforms / other HDAC isoforms” value was 71–90%.

(Values after article PMC12091851, “Replacing a Cereblon Ligand by a DDB1 and CUL4 Associated Factor 11 (DCAF11) Recruiter Converts a Selective Histone Deacetylase 6 PROTAC into a Pan‐Degrader” (Chemmedchem, 2025).)
